Our source for the IC50 values is patent US20100204224A1, “AZACYCLIC COMPOUNDS AS INHIBITORS OF SENSORY NEURONE SPECIFIC SODIUM CHANNELS” (priority 2005, published 2010).

Structures can show the parent of a compound that is named as a salt.

T1 sequence (Q9Y5Y9 whole entry): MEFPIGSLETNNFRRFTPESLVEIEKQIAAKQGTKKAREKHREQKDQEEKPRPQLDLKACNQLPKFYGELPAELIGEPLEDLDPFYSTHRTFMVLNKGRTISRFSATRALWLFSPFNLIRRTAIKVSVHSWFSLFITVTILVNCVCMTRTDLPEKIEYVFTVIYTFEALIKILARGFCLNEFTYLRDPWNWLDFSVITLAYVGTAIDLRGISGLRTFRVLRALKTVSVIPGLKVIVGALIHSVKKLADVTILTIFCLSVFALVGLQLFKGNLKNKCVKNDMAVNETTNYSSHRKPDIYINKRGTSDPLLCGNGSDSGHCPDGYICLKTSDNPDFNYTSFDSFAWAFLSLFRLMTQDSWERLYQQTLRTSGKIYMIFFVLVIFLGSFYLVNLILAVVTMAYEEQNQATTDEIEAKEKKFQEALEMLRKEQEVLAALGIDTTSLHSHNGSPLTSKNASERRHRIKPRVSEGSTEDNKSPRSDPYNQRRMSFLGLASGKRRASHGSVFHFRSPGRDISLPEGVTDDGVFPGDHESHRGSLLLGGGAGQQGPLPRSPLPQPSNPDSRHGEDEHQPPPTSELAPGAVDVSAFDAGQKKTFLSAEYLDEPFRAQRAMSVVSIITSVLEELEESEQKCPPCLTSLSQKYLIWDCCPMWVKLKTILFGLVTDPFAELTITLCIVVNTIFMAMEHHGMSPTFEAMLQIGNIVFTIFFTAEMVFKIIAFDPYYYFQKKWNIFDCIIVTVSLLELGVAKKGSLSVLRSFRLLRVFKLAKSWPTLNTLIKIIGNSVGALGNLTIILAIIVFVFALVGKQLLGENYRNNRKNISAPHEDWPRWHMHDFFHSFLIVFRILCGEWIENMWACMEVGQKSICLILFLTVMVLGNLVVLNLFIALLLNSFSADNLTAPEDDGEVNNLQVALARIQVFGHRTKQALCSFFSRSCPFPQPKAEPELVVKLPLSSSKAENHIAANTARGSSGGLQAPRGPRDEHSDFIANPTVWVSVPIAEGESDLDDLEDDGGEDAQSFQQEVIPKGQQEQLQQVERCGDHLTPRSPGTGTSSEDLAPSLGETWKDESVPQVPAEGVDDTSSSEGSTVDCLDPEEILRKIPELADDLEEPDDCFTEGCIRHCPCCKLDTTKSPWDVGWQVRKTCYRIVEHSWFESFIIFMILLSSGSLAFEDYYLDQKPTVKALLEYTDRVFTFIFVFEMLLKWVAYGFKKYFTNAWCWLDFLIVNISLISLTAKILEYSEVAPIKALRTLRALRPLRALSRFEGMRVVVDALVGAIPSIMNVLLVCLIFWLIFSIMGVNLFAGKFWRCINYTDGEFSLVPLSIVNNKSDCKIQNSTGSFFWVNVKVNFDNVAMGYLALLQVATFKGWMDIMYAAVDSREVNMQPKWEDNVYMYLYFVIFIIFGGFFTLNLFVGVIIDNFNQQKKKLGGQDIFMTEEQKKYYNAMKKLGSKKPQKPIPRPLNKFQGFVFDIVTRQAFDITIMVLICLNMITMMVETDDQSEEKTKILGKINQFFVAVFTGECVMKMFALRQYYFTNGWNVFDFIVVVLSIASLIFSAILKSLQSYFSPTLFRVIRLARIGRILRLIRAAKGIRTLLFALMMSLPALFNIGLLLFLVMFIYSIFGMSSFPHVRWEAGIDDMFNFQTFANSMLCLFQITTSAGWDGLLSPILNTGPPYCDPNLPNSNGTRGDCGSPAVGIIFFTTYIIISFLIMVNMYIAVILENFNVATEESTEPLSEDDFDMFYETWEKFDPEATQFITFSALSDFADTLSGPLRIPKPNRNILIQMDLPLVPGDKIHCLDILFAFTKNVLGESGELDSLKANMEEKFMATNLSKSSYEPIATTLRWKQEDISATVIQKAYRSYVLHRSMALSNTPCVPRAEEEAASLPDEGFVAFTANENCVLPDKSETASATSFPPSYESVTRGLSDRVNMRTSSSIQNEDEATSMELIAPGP

One assay has as its target T1, human Nav1.8 (hNav1.8) ion channel (Homo sapiens, UniProt Q9Y5Y9).
T1 construct: expressed in transfected cells
In words: Inhibition of human Nav1.8 stably expressed in SH-SY-5Y cells (membrane potential dye fluorescence assay). Format: cell-based. The conditions noted are these: SH-SY-5Y hNav1.8 cells; FLIPR membrane potential dye; 10 μM pyrethroid, 250 nM TTX; test concentration range 100 μM-0.05 μM; read-out: hNav1.8 IC50.
With `Cc1ccccc1C(C)N1CC2CC1CN2C(=O)Nc1ccc(OCC2CCCO2)cc1` (centres unmarked) [Example 26, 5-(1-o-Tolyl-ethyl)-2,5-diaza-bicyclo[2.2.1]heptane-2-carboxylic acid [4-(tetrahydro-furan-2-ylmethoxy)-phenyl]-amide], the IC50 – broadly, the point on the concentration scale where inhibition reaches its midpoint – is 16700 nM. For `CC(c1ccc(F)cc1)N1CC2CC1CN2C(=O)Nc1cccc(Oc2ccccc2)c1` (centres unmarked) [Example 49, 5-[1-(4-Fluoro-phenyl)-ethyl]-2,5-diaza-bicyclo[2.2.1]heptane-2-carboxylic acid (3-phenoxy-phenyl)-amide], the IC50 came to 1080 nM. On the same count and under the same terms, next, `CCOCCOCCOc1ccc(NC(=O)N2CC3CC2CN3C(C)c2ccccc2C)cc1` (centres unmarked) [Example 16, 5-(1-o-Tolyl-ethyl)-2,5-diaza-bicyclo[2.2.1]heptane-2-carboxylic acid {4-[2-(2-ethoxy-ethoxy)-ethoxy]-phenyl}-amide]: 25600 nM. Same read-out and setting: as for `O=C(Nc1ccc(Oc2ccccc2)cc1)N1CC2CC1CN2C1Cc2ccc(F)cc2C1` (centres unmarked) [Example 125, 5-(5-Fluoro-indan-2-yl)-2,5-diaza-bicyclo[2.2.1]heptane-2-carboxylic acid (4-phenoxy-phenyl)-amide], the figure is 780 nM; as for `Cc1ccccc1C(C)N1CC2CC1CN2C(=O)Nc1cccc(Oc2ccccc2)c1` (centres unmarked) [Example 8, 5-(1-o-Tolyl-ethyl)-2,5-diaza-bicyclo[2.2.1]heptane-2-carboxylic acid (3-phenoxy-phenyl)-amide], 680 nM; as for “1-{5-[1-(2,5-Dichloro-phenyl)-ethyl]-2,5-diaza-bicyclo[2.2.1]hept-2-yl}-2-[4-(4-fluoro-phenoxy)-phenyl]-ethanone [Example 157]”, not below 30000 nM. Still for that read-out and setting: as for `CC(c1ccccc1Cl)N1CC2CC1CN2C(=O)Nc1ccc(Oc2ccc(F)cc2)cc1` (single isomer, unassigned) [Example 76, 5-[1-(2-Chloro-phenyl)-ethyl]-2,5-diaza-bicyclo[2.2.1]heptane-2-carboxylic acid [4-(4-fluoro-phenoxy)-phenyl]-amide], the figure is 270 nM. On to `Cc1cc(F)ccc1C(C)N1CC2CC1CN2C(=O)Nc1ccc(Oc2ccccc2)cc1` (centres unmarked) [Example 64, 5-[1-(4-Fluoro-2-methyl-phenyl)-ethyl]-2,5-diaza-bicyclo[2.2.1]heptane-2-carboxylic acid (4-phenoxy-phenyl)-amide], for which the IC50 was determined as 270 nM. On the same count and under the same terms, next, `CC(c1ccccc1C(F)(F)F)N1CC2CC1CN2C(=O)Nc1ccc(Oc2ccccc2)cc1` (single isomer, unassigned) [Example 62, 5-[1-(2-Trifluoromethyl-phenyl)-ethyl]-2,5-diaza-bicyclo[2.2.1]heptane-2-carboxylic acid (4-phenoxy-phenyl)-amide]: 17200 nM; `O=C(Nc1ccc(Oc2ccc(F)cc2)cc1)N1CC2CC1CN2C1CCc2ccccc2C1` (centres unmarked) [Example 101, 5-(1,2,3,4-Tetrahydro-naphthalen-2-yl)-2,5-diaza-bicyclo[2.2.1]heptane-2-carboxylic acid [4-(4-fluoro-phenoxy)-phenyl]-amide methanesulfonate salt]: 340 nM; `CC(c1ccccn1)N1CC2CC1CN2C(=O)c1ccc(Oc2cccc(C#N)c2)cc1` (centres unmarked) [Example 180, 3-{4-[5-(1-Pyridin-2-yl-ethyl)-2,5-diaza-bicyclo[2.2.1]heptane-2-carbonyl]-phenoxy}-benzonitrile]: 4650 nM.

With `Cc1ccc(C(C)N2CC3CC2CN3C(=O)Nc2ccc(Oc3ccc(F)cc3)cc2)c(C)c1` (centres unmarked) [Example 117, 5-[1-(2,4-Dimethyl-phenyl)-ethyl]-2,5-diaza-bicyclo[2.2.1]heptane-2-carboxylic acid [4-(4-fluoro-phenoxy)-phenyl]-amide], the half-inhibitory concentration (IC50) worked out at 420 nM. On to `CC(c1ccc(Cl)cc1Cl)N1CC2CC1CN2C(=O)Nc1ccc(C(F)(F)F)cc1` (centres unmarked) [Example 120, 5-[1-(2,4-Dichloro-phenyl)-ethyl]-2,5-diaza-bicyclo[2.2.1]heptane-2-carboxylic acid (4-trifluoromethyl-phenyl)-amide], for which the half-maximal inhibitory concentration (IC50) stood at 24500 nM.

For `Cc1ccsc1CN1CC2CC1CN2C(=O)Nc1ccc(Oc2ccccc2)nc1` (centres unmarked) [Example 2, 5-(3-Methyl-thiophen-2-ylmethyl)-2,5-diaza-bicyclo[2.2.1]heptane-2-carboxylic acid (6-phenoxy-pyridin-3-yl)-amide], the IC50 turned out to be 3740 nM. On the same count and under the same terms, as for `CC(Cc1c(F)cccc1Cl)N1CC2CC1CN2C(=O)Nc1ccc(C(F)(F)F)cc1` (centres unmarked) [Example 85, 5-[2-(2-Chloro-6-fluoro-phenyl)-1-methyl-ethyl]-2,5-diaza-bicyclo[2.2.1]heptane-2-carboxylic acid (4-trifluoromethyl-phenyl)-amide], the figure is 630 nM; as for `CC(C(C#N)c1ccccc1)N1CC2CC1CN2C(=O)Nc1ccc(C(F)(F)F)cc1` (centres unmarked) [Example 81, 5-(2-Cyano-1-methyl-2-phenyl-ethyl)-2,5-diaza-bicyclo[2.2.1]heptane-2-carboxylic acid (4-trifluoromethyl-phenyl)-amide], 26200 nM; as for `COCCOCCOc1ccc(NC(=O)N2CC3CC2CN3C(C)c2ccccc2C)cc1` (centres unmarked) [Example 18, 5-(1-o-Tolyl-ethyl)-2,5-diaza-bicyclo[2.2.1]heptane-2-carboxylic acid {4-[2-(2-methoxy-ethoxy)-ethoxy]-phenyl}-amide], not below 30000 nM. The same measure, in the same setting: as for `Cc1ccccc1C(C)N1CC2CC1CN2C(=O)Nc1ccc(OC2CCCC2)cc1` (centres unmarked) [Example 24, 5-(1-o-Tolyl-ethyl)-2,5-diaza-bicyclo[2.2.1]heptane-2-carboxylic acid (4-cyclopentyloxy-phenyl)-amide], the figure is 890 nM. On the same count and under the same terms, next, `Cc1cc(F)ccc1C(C)N1CC2CC1CN2C(=O)Nc1ccc(C(=O)c2ccccc2)cc1` (centres unmarked) [Example 72, 5-[1-(4-Fluoro-2-methyl-phenyl)-ethyl]-2,5-diaza-bicyclo[2.2.1]heptane-2-carboxylic acid (4-benzoyl-phenyl)-amide]: 2260 nM; `O=C(c1ccc(C(F)(F)F)cc1)N1CC2CC1CN2C1CCc2ccc(F)cc2C1` (centres unmarked) [Example 138, [5-(7-Fluoro-1,2,3,4-tetrahydro-naphthalen-2-yl)-2,5-diaza-bicyclo[2.2.1]hept-2-yl]-(4-trifluoromethyl-phenyl)-methanone]: 13300 nM; `CC(c1ccccc1Cl)N1CC2CC1CN2C(=O)Nc1ccc(Oc2ccc(F)cc2)c(F)c1` (centres unmarked) [Example 110, 5-[1-(2-Chloro-phenyl)-ethyl]-2,5-diaza-bicyclo[2.2.1]heptane-2-carboxylic acid [3-fluoro-4-(4-fluoro-phenoxy)-phenyl]-amide]: 210 nM. As to `COCCOc1ccc(NC(=O)N2CC3CC2CN3C(C)c2ccccc2C)cc1` (centres unmarked) [Example 19, 5-(1-o-Tolyl-ethyl)-2,5-diaza-bicyclo[2.2.1]heptane-2-carboxylic acid [4-(2-methoxy-ethoxy)-phenyl]-amide], the half-maximal inhibitory concentration (IC50) was not below 30000 nM.

For the compound `CC(c1ccc(F)cc1Cl)N1CC2CC1CN2C(=O)c1ccc(Oc2ccc(F)cc2)cc1` (centres unmarked) [Example 164, {5-[1-(2-Chloro-4-fluoro-phenyl)-ethyl]-2,5-diaza-bicyclo[2.2.1]hept-2-yl}-[4-(4-fluoro-phenoxy)-phenyl]-methanone], the IC50 was found to be 13500 nM. For the compound `O=C(Nc1ccc(Oc2ccccc2)cc1)N1CC2CC1CN2C1CCc2cccc(Cl)c21` (centres unmarked) [Example 141, 5-(7-Chloro-indan-1-yl)-2,5-diaza-bicyclo[2.2.1]heptane-2-carboxylic acid (4-phenoxy-phenyl)-amide], the IC50 worked out at 200 nM. Consider `CC(c1ccc(Cl)cc1Cl)N1CC2CC1CN2C(=O)Nc1ccc(Oc2ccc(Cl)cc2)cc1` (centres unmarked) [Example 121, 5-[1-(2,4-Dichloro-phenyl)-ethyl]-2,5-diaza-bicyclo[2.2.1]heptane-2-carboxylic acid [4-(4-chloro-phenoxy)-phenyl]-amide], for which the IC50 was 22400 nM. With `O=C(Nc1ccc(Oc2ccc(F)cc2)cc1)N1CC2CC1CN2C1Cc2ccc(F)cc2C1` (centres unmarked) [Example 131, 5-(5-Fluoro-indan-2-yl)-2,5-diaza-bicyclo[2.2.1]heptane-2-carboxylic acid [4-(4-fluoro-phenoxy)-phenyl]-amide], the IC50 turned out to be 550 nM. Still for that read-out and setting: next, `CC(c1c(F)cccc1Cl)N1CC2CC1CN2C(=O)c1ccc(Oc2ccc(F)cc2)cc1` (centres unmarked) [Example 167, {5-[1-(2-Chloro-6-fluoro-phenyl)-ethyl]-2,5-diaza-bicyclo[2.2.1]hept-2-yl}-[4-(4-fluoro-phenoxy)-phenyl]-methanone]: 2220 nM.

Still in this assay, the particulars now being: hNav1.8 IC50, SH-SY-5Y hNav1.8 cells; FLIPR membrane potential dye; 10 μM pyrethroid, 250 nM TTX; test concentration range 100 μM-0.05 μM.
For `CC(c1ccccc1Cl)N1CC2CC1CN2C(=O)Cc1ccc(Oc2ccc(F)cc2)cc1` (centres unmarked) [Example 136, 1-{5-[1-(2-Chloro-phenyl)-ethyl]-2,5-diaza-bicyclo[2.2.1]hept-2-yl}-2-[4-(4-fluoro-phenoxy)-phenyl]-ethanone], the IC50 was determined as 2410 nM.

`Cc1ccccc1C(C)N1CC2CC1CN2C(=O)Cc1ccc(Oc2ccccc2)cc1` (centres unmarked) [Example 36, 2-(4-Phenoxy-phenyl)-1-[5-(1-o-tolyl-ethyl)-2,5-diaza-bicyclo[2.2.1]hept-2-yl]-ethanone]: half-maximal inhibition (IC50) was put at 810 nM. On the same count and under the same terms, as for `CC(c1c(F)cccc1Cl)N1CC2CC1CN2C(=O)Cc1ccc(Oc2ccc(F)cc2)cc1` (single isomer, unassigned) [Example 166, 1-{5-[1-(2-Chloro-6-fluoro-phenyl)-ethyl]-2,5-diaza-bicyclo[2.2.1]hept-2-yl}-2-[4-(4-fluoro-phenoxy)-phenyl]-ethanone], the figure is 3910 nM; as for `Cc1ccccc1C(C)N1CC2CC1CN2C(=O)Cc1ccc(Oc2ccccc2)cc1` (centres unmarked) [Example 37, 2-(4-Phenoxy-phenyl)-1-[5-(1-o-tolyl-ethyl)-2,5-diaza-bicyclo[2.2.1]hept-2-yl]-ethanone], 960 nM; as for `CC(c1ccccc1Br)N1CC2CC1CN2C(=O)Cc1ccc(Oc2ccc(F)cc2)cc1` (centres unmarked) [Example 154, 1-{5-[1-(2-Bromo-phenyl)-ethyl]-2,5-diaza-bicyclo[2.2.1]hept-2-yl}-2-[4-(4-fluoro-phenoxy)-phenyl]-ethanone], 4310 nM.
